Test results as given in patent US9630963B2, “Quinolone derivatives as fibroblast growth factor inhibitors” (Principia Biopharma, Inc., priority 2013, dated 2017).
Where a name gives a salt, the structure may show the parent alone.

Legend:
SNU-16 cells = assay: Inhibition of FGFR2-dependent cell growth (Cell-titer Glo); assay type: cell-based; conditions: Homo sapiens, SNU16 cells, 72 hrs incubation, cell viability by Cell-titer Glo
Method: The cell-based effects of FGFR inhibitors were determined by measuring inhibition of FGFR-dependent cell line growth. […] Percent inhibition of cell growth was calculated as a percentage of untreated cell viability. The percent inhibition was plotted as a function of log compound concentration. The IC50 was then calculated for each compound using Prism software from GraphPad.

human recombinant FGFR3 = human recombinant FGFR3 (Homo sapiens, UniProt P22607); assay: FGFR family enzymatic activity assay (Caliper-based kinase assay), FGFR3; assay type: biochemical; conditions: FGFR3 0.9 nM, ATP 120 μM, peptide substrate 1 μM, room temperature 3 h
Text: (§1) A Caliper-based kinase assay (Caliper Life Sciences, Hopkinton, Mass.) was used to measure inhibition of FGFR family (FGFR1, FGFR2, FGFR3, FGFR4) kinase activity of a compound of Formula (I′) or (I). […] This value is presented as the IC50.

human recombinant FGFR2 = human recombinant FGFR2 (Homo sapiens, UniProt P21802); assay: FGFR family enzymatic activity assay (Caliper-based kinase assay), FGFR2; assay type: biochemical; conditions: FGFR2 0.1 nM, ATP 75 μM, peptide substrate 1 μM, room temperature 3 h
Text: as §1

human recombinant FGFR1 = human recombinant FGFR1 (Homo sapiens, UniProt P11362); assay: FGFR family enzymatic activity assay (Caliper-based kinase assay), FGFR1; assay type: biochemical; conditions: FGFR1 0.5 nM, ATP 100 μM, peptide substrate 1 μM, room temperature 3 h
Text: as §1

human recombinant FGFR4 = human recombinant FGFR4 (Homo sapiens, UniProt P22455); assay: FGFR family enzymatic activity assay (Caliper-based kinase assay), FGFR4; assay type: biochemical; conditions: FGFR4 2 nM, ATP 250 μM, peptide substrate 1 μM, room temperature 3 h
Text: as §1

Chain of human recombinant FGFR4 (P22455 22-802): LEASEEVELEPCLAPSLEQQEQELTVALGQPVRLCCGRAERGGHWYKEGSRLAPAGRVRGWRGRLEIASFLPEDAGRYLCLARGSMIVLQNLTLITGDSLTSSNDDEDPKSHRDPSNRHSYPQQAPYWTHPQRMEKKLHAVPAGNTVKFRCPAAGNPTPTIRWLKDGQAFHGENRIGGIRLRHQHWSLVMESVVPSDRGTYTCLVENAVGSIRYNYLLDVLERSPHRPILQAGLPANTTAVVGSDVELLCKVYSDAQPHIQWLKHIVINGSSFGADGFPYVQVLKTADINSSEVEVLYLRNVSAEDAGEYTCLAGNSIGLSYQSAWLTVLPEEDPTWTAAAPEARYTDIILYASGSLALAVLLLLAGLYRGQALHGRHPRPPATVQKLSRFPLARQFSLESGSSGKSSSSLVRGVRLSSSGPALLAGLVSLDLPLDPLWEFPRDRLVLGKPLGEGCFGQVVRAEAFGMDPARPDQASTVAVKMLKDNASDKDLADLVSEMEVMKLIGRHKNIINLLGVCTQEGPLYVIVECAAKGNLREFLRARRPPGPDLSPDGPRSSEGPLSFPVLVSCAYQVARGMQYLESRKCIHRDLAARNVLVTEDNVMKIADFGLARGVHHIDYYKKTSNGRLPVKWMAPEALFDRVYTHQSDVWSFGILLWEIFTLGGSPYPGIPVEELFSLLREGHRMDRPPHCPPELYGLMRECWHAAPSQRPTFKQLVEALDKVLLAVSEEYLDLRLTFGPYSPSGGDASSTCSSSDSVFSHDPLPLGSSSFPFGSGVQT
Chain of human recombinant FGFR2 (P21802 22-821): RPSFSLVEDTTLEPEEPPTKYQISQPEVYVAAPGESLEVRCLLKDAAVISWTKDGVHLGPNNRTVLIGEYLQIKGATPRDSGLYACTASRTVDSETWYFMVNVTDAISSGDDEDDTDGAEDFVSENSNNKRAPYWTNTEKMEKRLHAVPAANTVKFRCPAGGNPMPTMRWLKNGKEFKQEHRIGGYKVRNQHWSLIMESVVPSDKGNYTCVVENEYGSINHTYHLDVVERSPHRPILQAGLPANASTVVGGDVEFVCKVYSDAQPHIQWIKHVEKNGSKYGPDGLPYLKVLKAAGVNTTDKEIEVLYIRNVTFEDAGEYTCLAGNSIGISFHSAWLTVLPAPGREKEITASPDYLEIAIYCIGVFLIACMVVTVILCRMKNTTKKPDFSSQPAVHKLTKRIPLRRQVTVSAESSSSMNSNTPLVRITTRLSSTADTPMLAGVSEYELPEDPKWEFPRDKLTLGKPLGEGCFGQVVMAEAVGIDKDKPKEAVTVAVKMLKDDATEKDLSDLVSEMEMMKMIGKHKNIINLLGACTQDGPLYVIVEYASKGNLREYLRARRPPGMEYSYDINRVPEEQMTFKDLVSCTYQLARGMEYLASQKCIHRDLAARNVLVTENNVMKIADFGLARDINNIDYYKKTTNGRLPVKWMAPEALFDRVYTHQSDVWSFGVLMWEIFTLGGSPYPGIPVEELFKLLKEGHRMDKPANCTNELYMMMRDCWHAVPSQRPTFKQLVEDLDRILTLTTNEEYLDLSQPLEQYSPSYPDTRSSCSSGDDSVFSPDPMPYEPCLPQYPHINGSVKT
Chain of human recombinant FGFR1 (P11362 22-822): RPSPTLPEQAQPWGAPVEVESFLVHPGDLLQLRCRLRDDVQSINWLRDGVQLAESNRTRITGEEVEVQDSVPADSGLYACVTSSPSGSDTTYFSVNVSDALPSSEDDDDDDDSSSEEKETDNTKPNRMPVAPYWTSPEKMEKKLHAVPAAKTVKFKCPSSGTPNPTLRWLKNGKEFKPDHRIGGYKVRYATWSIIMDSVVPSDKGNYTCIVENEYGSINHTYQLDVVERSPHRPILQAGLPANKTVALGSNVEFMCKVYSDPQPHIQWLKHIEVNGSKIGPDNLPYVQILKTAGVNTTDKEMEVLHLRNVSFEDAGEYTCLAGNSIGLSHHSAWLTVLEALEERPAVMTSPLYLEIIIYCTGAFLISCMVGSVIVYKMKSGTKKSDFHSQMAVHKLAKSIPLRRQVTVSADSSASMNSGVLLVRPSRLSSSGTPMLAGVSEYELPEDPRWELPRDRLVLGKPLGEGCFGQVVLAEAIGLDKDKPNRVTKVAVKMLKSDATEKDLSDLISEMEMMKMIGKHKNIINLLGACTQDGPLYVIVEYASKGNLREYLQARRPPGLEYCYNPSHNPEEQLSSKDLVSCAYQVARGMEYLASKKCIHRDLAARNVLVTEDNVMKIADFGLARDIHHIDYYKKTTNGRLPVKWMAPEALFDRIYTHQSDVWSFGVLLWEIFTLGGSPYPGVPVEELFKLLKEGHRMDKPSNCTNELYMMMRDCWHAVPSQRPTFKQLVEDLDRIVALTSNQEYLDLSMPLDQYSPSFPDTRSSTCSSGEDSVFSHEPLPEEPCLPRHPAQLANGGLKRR
Chain of human recombinant FGFR3 (P22607 23-806): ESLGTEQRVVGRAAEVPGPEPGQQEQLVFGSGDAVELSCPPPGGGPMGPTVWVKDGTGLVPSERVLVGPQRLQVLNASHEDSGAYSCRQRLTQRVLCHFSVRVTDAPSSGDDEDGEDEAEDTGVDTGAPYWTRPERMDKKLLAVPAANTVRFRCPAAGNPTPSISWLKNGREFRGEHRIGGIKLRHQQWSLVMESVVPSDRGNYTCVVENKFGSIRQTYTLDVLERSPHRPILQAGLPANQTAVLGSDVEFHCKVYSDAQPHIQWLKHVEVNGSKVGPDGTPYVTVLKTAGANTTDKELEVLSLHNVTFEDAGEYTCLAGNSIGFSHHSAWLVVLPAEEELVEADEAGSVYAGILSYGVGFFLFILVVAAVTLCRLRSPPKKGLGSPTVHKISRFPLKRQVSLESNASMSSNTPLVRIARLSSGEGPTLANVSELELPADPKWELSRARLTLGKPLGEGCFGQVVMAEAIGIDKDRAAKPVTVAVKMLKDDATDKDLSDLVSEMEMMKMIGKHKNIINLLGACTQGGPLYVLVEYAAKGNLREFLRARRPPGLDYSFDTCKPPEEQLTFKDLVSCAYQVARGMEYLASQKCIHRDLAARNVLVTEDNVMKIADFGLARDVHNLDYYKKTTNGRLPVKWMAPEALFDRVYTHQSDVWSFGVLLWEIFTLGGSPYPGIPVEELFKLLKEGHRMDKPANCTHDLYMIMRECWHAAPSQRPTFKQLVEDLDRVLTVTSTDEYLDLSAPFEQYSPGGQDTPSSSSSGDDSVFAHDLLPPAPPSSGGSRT

Row | SMILES | IC50 (SNU-16 cells) [nM] | IC50 (human recombinant FGFR3) [nM] | IC50 (human recombinant FGFR2) [nM] | IC50 (human recombinant FGFR1) [nM] | IC50 (human recombinant FGFR4) [nM]
1 | C=CC(=O)Nc1ccc(CCn2c(=O)c(-c3c(Cl)c(OC)cc(OC)c3Cl)cc3cnc(NCCCCN(CC)CC)nc32)cc1 [Example 5, N-(4-(2-(6-(2,6-dichloro-3,5-dimethoxyphenyl)-2-(4-(diethylamino)butylamino)-7-oxopyrido[2,3-d]pyrimidin-8(7H)-yl)ethyl)phenyl)acrylamide hydrochloride] | 5.6 | 5.5 | 1.5 | 1.1 | 32.4
2 | C=CC(=O)N1CCCC(CCn2c(=O)c(-c3ccccc3Cl)cc3cnc(NCCCCN(CC)CC)nc32)C1 (stereo not drawn) [Example 2, 8-(2-(1-acryloylpiperidin-3-yl)ethyl)-6-(2-chlorophenyl)-2-(4-(diethylamino)-butylamino)pyrido[2,3-d]pyrimidin-7(8H)-one] | – | 1040 | 701 | 840 | > 5000
3 | C=CC(=O)Nc1ccc(CCn2c(=O)c(-c3cc(OC)cc(OC)c3Cl)cc3cnc(NC)nc32)cc1 [Example 13, N-(4-(2-(6-(2-chloro-3,5-dimethoxyphenyl)-2-(methylamino)-7-oxopyrido[2,3-d]pyrimidin-8(7H)-yl)ethyl)phenyl)acrylamide] | – | 2.3 | 1.4 | – | 25.6
4 | C=CC(=O)Nc1ccc(CCn2c(=O)c(-c3cc(OC)cc(OC)c3Cl)cc3cnc(NC)nc32)cn1 [Example 16, N-(5-(2-(6-(2-chloro-3,5-dimethoxyphenyl)-2-(methylamino)-7-oxopyrido[2,3-d]pyrimidin-8(7H)-yl)ethyl)pyridin-2-yl)acrylamide] | – | 2.3 | 1.7 | – | 6.9
5 | C=CC(=O)Nc1cccc(Cn2c(=O)c(-c3c(Cl)c(OC)cc(OC)c3Cl)cc3cnc(NCCCCN(CC)CC)nc32)c1 [Example 6, N-(3-[[6-(2,6-dichloro-3,5-dimethoxyphenyl)-2-[[4-(diethylamino)butyl]-amino]-7-oxo-7H,8H-pyrido[2,3-d]pyrimidin-8-yl]methyl]phenyl)acrylamide] | – | 3.1 | 1 | 1.3 | 33.2

The next lines start with the values.

Row | IC50 (SNU-16 cells) [nM] | IC50 (human recombinant FGFR3) [nM] | IC50 (human recombinant FGFR2) [nM] | IC50 (human recombinant FGFR1) [nM] | IC50 (human recombinant FGFR4) [nM] | SMILES
6 | 4.9 | 5.9 | 1.3 | 1 | 95.8 | C=CC(=O)Nc1ccc(CCn2c(=O)c(-c3cc(OC)cc(OC)c3Cl)cc3cnc(NCC4CCN(C)CC4)nc32)cc1 [Example 71, N-(4-(2-(6-(2-chloro-3,5-dimethoxyphenyl)-2-(((1-methylpiperidin-4-yl)methyl)-amino)-7-oxopyrido[2,3-d]pyrimidin-8(7H)-yl)ethyl)phenyl)acrylamide]
7 | – | 6.3 | 2 | – | 41 | C=CC(=O)Nc1ccc(CCn2c(=O)c(-c3cc(OC)cc(OC)c3Cl)cc3cnc(NCCN4CCN(C(C)=O)CC4)nc32)cc1 [Example 66, N-(4-(2-(2-((2-(4-acetylpiperazin-1-yl)ethyl)amino)-6-(2-chloro-3,5-dimethoxy-phenyl)-7-oxopyrido[2,3-d]pyrimidin-8(7H)-yl)ethyl)phenyl)acrylamide]
8 | – | 6 | 2 | – | 42.4 | C=CC(=O)Nc1ccc(CCn2c(=O)c(-c3cc(OC)cc(OC)c3Cl)cc3cnc(NCCO)nc32)cc1 [Example 69, N-(4-(2-(6-(2-chloro-3,5-dimethoxyphenyl)-2-((2-hydroxyethyl)amino)-7-oxopyrido[2,3-d]pyrimidin-8(7H)-yl)ethyl)phenyl)acrylamide]
9 | – | 6.8 | 1.5 | – | 43.3 | C=CC(=O)Nc1ccc(CCn2c(=O)c(-c3cc(OC)cc(OC)c3Cl)cc3cnc(NC(CO)CO)nc32)cc1 [Example 72, N-(4-(2-(6-(2-chloro-3,5-dimethoxyphenyl)-2-((1,3-dihydroxypropan-2-yl)amino)-7-oxopyrido[2,3-d]pyrimidin-8(7H)-yl)ethyl)phenyl)acrylamide]
